Structures can show the parent of a compound that is named as a salt.

In the experiment the test system is RSV Long strain. The experiment is described as follows: Viral cytopathic effect (CPE) assay, anti-RSV activity. Format: cell-based, Respiratory Syncytial Virus. Particulars: RSV Long strain (ATCC), cell viability after 6 days, Cell Counting kit-8. In a few lines: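 EC50 was derived from CCK-8 viability at 450/630 nm measured 6 days post-infection. Infection used enough RSV Long strain for approximately 80–90% cytopathic effect, in the presence of half-log serially diluted compound. Cells were plated the day before at 6×10^3 per well in DMEM/10% FBS.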

Where [1] appears, read: human respiratory syncytial virus, 144 h.

The molecule `Cc1ccc2nc(N3CCS(=O)(=O)c4ccccc4C3)cc(NC[C@@H](N)CO)c2c1` [Example 37-2, (2R)-2-Amino-3-{[2-(1,1-dioxido-2,3-dihydro-1,4-benzothiazepin-4(5H)-yl)-6-methylquinolin-4-yl]amino}propan-1-ol] showed an EC50 under setting [1] of 0.043 µM. In other words, the double-digit nanomolar range.

Under setting [1], `Cc1ccc2nc(N3CCS(=O)(=O)c4ccccc4C3)cc(NCCC3(N)CC3)c2c1` [Example 20-3, [2-(1-Amino-cyclopropyl)-ethyl]-[2-(1,1-dioxido-2,3-dihydro-1,4-benzothiazepin-4(5H)-yl)-6-methylquinolin-4-yl]-amine] showed an EC50 of 0.093 µM.

Molecule `NCC1(CNc2cc(N3CCS(=O)(=O)c4ccccc4C3)nc3ccc(F)cc23)COC1` [Example 17-8, N-{[3-(Aminomethyl)oxetan-3-yl]methyl}-2-(1,1-dioxido-2,3-dihydro-1,4-benzothiazepin-4(5H)-yl)-6-fluoroquinolin-4-amine] showed an EC50 under setting [1] of 0.021 µM. Compared with the last molecule, the EC50 is about 4.4-fold lower. Same read-out and setting: as for `COc1ccc2c(c1)S(=O)(=O)CCN(c1cc(NCC3(N)COC3)c3cc(C)ccc3n1)C2` [Example 1-1, N-[(3-Aminooxetan-3-yl)methyl]-2-(8-methoxy-1,1-dioxido-2,3-dihydro-1,4-benzothiazepin-4(5H)-yl)-6-methylquinolin-4-amine], the figure is 0.002 µM. On to `Cc1ccc2nc(N3CCS(=O)(=O)c4ccccc4C3)nc(N[C@@H]3CNC[C@H]3F)c2c1` (relative stereo) [Example 92-2, N-(trans-4-Fluoropyrrolidin-3-yl)-6-methyl-2-(1,1-dioxido-2,3-dihydro-1,4-benzothiazepin-4(5H)-yl)quinazolin-4-amine], for which the response under setting [1] was half-maximal at 0.019 µM (EC50). On the same count and under the same terms, as for `Cc1cc2c(NCCN)cc(N3CCS(=O)(=O)c4ccccc4C3)nc2c(F)c1F` [Example 9-25, N-[2-(1,1-Dioxido-2,3-dihydro-1,4-benzothiazepin-4(5H)-yl)-7,8-difluoro-6-methylquinolin-4-yl]ethane-1,2-diamine], the figure is 4.08 µM; as for `NCCNc1cc(N2CCCc3ccc(C(=O)O)cc3C2)nc2ccccc12` [Example 118-25, 2-{4-[(2-Aminoethyl)amino]quinolin-2-yl}-2,3,4,5-tetrahydro-1H-2-benzazepine-8-carboxylic acid], 7.62 µM. In turn, `Cc1ccc2nc(N3CCS(=O)(=O)c4ccccc4C3)cc(NCC3(N)CCOCC3)c2c1` [Example 2-3, N-[(4-Aminotetrahydro-2H-pyran-4-yl)methyl]-2-(1,1-dioxido-2,3-dihydro-1,4-benzothiazepin-4(5H)-yl)-6-methylquinolin-4-amine] registered an EC50 under setting [1] of 2.81 µM. On the same count and under the same terms, as for `N=C(N)NCCNc1cc(N2CCCc3ccccc3C2)nc2ccccc12` [Example 125, 1-(2-{[2-(1,3,4,5-Tetrahydro-2H-2-benzazepin-2-yl)quinolin-4-yl]amino}ethyl)guanidine trifluoroacetate], the figure is 2.52 µM; as for `CCOc1ccc2c(c1)CN(c1cc(NCCN)c3ccccc3n1)CCC2` [Example 121, N-[2-(8-Ethoxy-1,3,4,5-tetrahydro-2H-2-benzazepin-2-yl)quinolin-4-yl]ethane-1,2-diamine], 1.1 µM; as for `Cc1ccc2nc(N3CCS(=O)(=O)c4cc(Cl)ccc4C3)cc(NCC(O)CO)c2c1` (stereo not drawn) [Example 32-3, 3-{[2-(8-Chloro-1,1-dioxido-2,3-dihydro-1,4-benzothiazepin-4(5H)-yl)-6-methylquinolin-4-yl]amino}propane-1,2-diol], 1.99 µM. `Cc1ccc2nc(N3CCS(=O)(=O)c4ccccc4C3)cc(Nc3cc[nH]n3)c2c1` [Example 47-3, 2-(1,1-Dioxido-2,3-dihydro-1,4-benzothiazepin-4(5H)-yl)-6-methyl-N-(1H-pyrazol-3-yl)quinolin-4-amine] registered an EC50 under setting [1] of 5.69 µM. `Cc1ccc2nc(N3CCS(=O)(=O)c4ccccc4C3)cc(NCC(F)CN)c2c1` (stereo not drawn) [Example 3-21, N-[2-(1,1-Dioxido-2,3-dihydro-1,4-benzothiazepin-4(5H)-yl)-6-methylquinolin-4-yl]-2-fluoropropane-1,3-diamine] showed an EC50 under setting [1] of 0.006 µM. This EC50 is about 950-fold lower than that of the molecule before. On the same count and under the same terms, in the case of `Cc1ccc2nc(N3CCC(F)(F)c4ccccc4C3)cc(NCC3(N)COC3)c2c1` [Example 110-1, N-[(3-Aminooxetan-3-yl)methyl]-2-(5,5-difluoro-1,3,4,5-tetrahydro-2H-2-benzazepin-2-yl)-6-methylquinolin-4-amine] it was 0.017 µM. The same measure, in the same setting: as for `NC1(CNc2nc(N3CCSc4ccccc4C3)nc3ccc(Cl)cc23)COC1` [Example 57-4, N-[(3-Aminooxetan-3-yl)methyl]-6-chloro-2-(2,3-dihydro-1,4-benzothiazepin-4(5H)-yl)quinazolin-4-amine], the figure is 0.239 µM. Under setting [1], `Cc1ccc2nc(N3CCS(=O)(=O)c4ccccc4C3)cc(NC3CCOCC3)c2c1` [Example 3-27, 2-(1,1-Dioxido-2,3-dihydro-1,4-benzothiazepin-4(5H)-yl)-6-methyl-N-(tetrahydro-2H-pyran-4-yl)quinolin-4-amine] registered an EC50 of 1.39 µM. Compared with the last molecule, the EC50 is about 5.8-fold higher.

Turning to `Cc1ccc2nc(N3CCS(=O)(=O)c4ccccc4C3)cc(NC(CN)(CO)CO)c2c1` [Example 72, 2-(Aminomethyl)-2-{[2-(1,1-dioxido-2,3-dihydro-1,4-benzothiazepin-4(5H)-yl)-6-methylquinolin-4-yl]amino}propane-1,3-diol], the EC50 under setting [1] worked out at 0.002 µM. Compared with the last molecule, the EC50 is about 690-fold lower. Molecule `Cc1ccc2nc(N3CCS(=O)(=O)c4ccccc4C3)cc(NC3CCCC(N)C3)c2c1` (stereo not drawn) [Example 3-16, N-[2-(1,1-Dioxido-2,3-dihydro-1,4-benzothiazepin-4(5H)-yl)-6-methylquinolin-4-yl]-cyclohexane-1,3-diamine] gave an EC50 under setting [1] of 0.075 µM. `Cc1ccc2nc(N3CCS(=O)(=O)c4ccccc4C3)cc(NCCCN)c2c1` [Example 9-3, N-[2-(1,1-Dioxido-2,3-dihydro-1,4-benzothiazepin-4(5H)-yl)-6-methylquinolin-4-yl]propane-1,3-diamine]: under setting [1], the half-maximal effective concentration (EC50) was 0.001 µM. Against the preceding molecule, the EC50 is about 75-fold lower.

As to `NCCCNc1cc(N2CCS(=O)(=O)c3ccccc3C2)nc2cc(Cl)ccc12` [Example 9-11, N-[7-Chloro-2-(1,1-dioxido-2,3-dihydro-1,4-benzothiazepin-4(5H)-yl)quinolin-4-yl]propane-1,3-diamine], the EC50 under setting [1] came to 0.953 µM. Compared with the last molecule, the EC50 is about 950-fold higher.

The molecule `Cc1ccc2nc(N3CC[S+]([O-])c4ccccc4C3)nc(NCC3(CN)COC3)c2c1` (single isomer, unassigned; (+)) [Example 62-3, (+)-N-{[3-(Aminomethyl)oxetan-3-yl]methyl}-6-methyl-2-[1-oxido-2,3-dihydro-1,4-benzothiazepin-4(5H)-yl]quinazolin-4-amine] had an EC50 of 0.0013 µM. The same measure, in the same setting: as for `Cc1ccc2nc(N3CC[S+]([O-])c4ccccc4C3)nc(NCC3(CN)COC3)c2c1` (stereo not drawn) [Example 62-1, N-{[3-(Aminomethyl)oxetan-3-yl]methyl}-6-methyl-2-(1-oxido-2,3-dihydro-1,4-benzothiazepin-4(5H)-yl)quinazolin-4-amine], the figure is 0.0003 µM. `Cc1ccc2nc(N3CCS(=O)(=O)c4ccccc4C3)cc(NC(=O)C3CCCCN3)c2c1` (stereo not drawn) [Example 47-5, N-[2-(1,1-Dioxido-2,3-dihydro-1,4-benzothiazepin-4(5H)-yl)-6-methylquinolin-4-yl]piperidine-2-carboxamide] displayed an EC50 under setting [1] of 0.835 µM. On the same count and under the same terms, in the case of `Cc1ccc2nc(N3CCS(=O)(=O)c4ccccc4C3)cc(NC(C)CN)c2c1` (stereo not drawn) [Example 9-18, N^˜2^˜-[2-(1,1-Dioxido-2,3-dihydro-1,4-benzothiazepin-4(5H)-yl)-6-methylquinolin-4-yl]propane-1,2-diamine] it was 0.01 µM.

The record behind these values is patent US8871756B2 (Hoffmann-La Roche Inc., priority 2011, dated 2014).
